Laboratory results: patent publication US20150125406A1, “TOPICAL SKIN CARE COMPOSITION” (JAFER LIMITED, priority 2012, published 2015)

How the values were obtained:
Assay type in all cases: cell-based
B16 melanocytes [1] = test: Melanin production/secretion in melanocytes, Study I; conditions: 48 hours incubation; for effect on pigmentation / inhibition of melanin production/secretion: 20X dilution of stock solutions
Procedure: This example illustrates the synergistic efficacy of the combination of the complexion modifying components (a) 4-hexylresorcinol, (b) niacinamide and (c) 1-amino-ethylphosphinic acid, compared to the effect of the individual components, based on an in vitro evaluation of melanin production/secretion in melanocytes. Components (a), (b) and (c) were evaluated individually and in combination with one another as described below in Studies I and II, and in Tables 9 and 10.
(§1) One set of aqueous stock solutions was prepared containing each component individually (as supplied) in an amount representing the active concentration present in a composition of Example 1-B (Compositions 6A-C in Table 9). A corresponding second and third set of stock solutions was prepared, respectively containing two-times (Compositions 6E-G in Table 9) and four-times (Compositions I-K in Table 9) the amount of the foregoing concentrations. Combinations of each component were prepared from the stock solutions of each component (Compositions. 6D, 6H, and 6L in Table 9) to provide amounts representing the weight ratio of each component to one another present (active basis) in a composition of Example 1-B as shown below in Notes 1-3 of Table 9. A 20-fold (20×) dilution (distilled water) of each stock solution was selected for the in vitro test to minimize or avoid cytotoxicity of melanocytes in the cell growth medium.
Component (c) as supplied is described in Note (a) to Table 2. As a positive control, stock solutions of kojic acid solutions were prepared at an active concentration of 2%, 0.5% and 0.1% to provide a concentration of 0.1%, 0.025% and 0.005%, respectively, at a 20× dilution. Distilled water was used as the negative control.
(§2) Cells (B16 melanocytes) were plated in phenol-free Dulbecco's Modified Eagle's Medium (DMEM) supplemented with 5% fetal bovine serum (FBS) at 10,000 cells/well. After 24 hours, test material was added and the cells were incubated with the test material for 48 hours. The melanin was quantified by instrumentally measuring absorbance with a BIORAD microplate spectrophotometer 3550-UV at 490 nanometers. Cultures were also photographed (CANON REBEL digital camera). Statistical significance of the values was calculated using paired t-test and threshold statistical significance was fixed at p=0.05 and 15% difference as compare to the water control group. Cell numbers were measured using a sulforhodamine B method (described by Skehan et al, “New colorimetric cytotoxicity assay for anticancer-drug screening”, J. Natl Cancer Inst., 82:1107, 1990, the relevant disclosures of which are incorporated herein by reference). The colorimetric signal proportional to cell numbers was acquired with the microplate spectrophotometer 3550-UV at 550 nanometers.

B16 melanocytes [2] = test: Melanin production/secretion in melanocytes, Study II; conditions: 20X dilution of dilute stock solutions; 72 hours
Procedure: as §2
Following the general procedure of Study I, a further set of dilute aqueous stock solutions was prepared containing each component individually (Compositions 6M-O in Table 10). […] For comparison, a dilute stock solution of hydroquinone (Composition 6Q) was included. A 20-fold (20×) dilution (distilled water) of each stock solution was selected for the in vitro test to minimize or avoid cytotoxicity of melanocytes in the cell growth medium.
Distilled water was used as the negative control. As a positive control for validating the test, a dilute stock solutions of kojic acid (0.2%, 0.04%) were prepared and a 20× dilution (0.01%, 0.002%) tested.
(§3) The methodology of Study I was repeated, except that the test was terminated after 72 hours for quantifying melanin pigmentation.

B16 melanocytes [3] = test: Cell numbers by sulforhodamine B method, Study II; conditions: 20X dilution of dilute stock solutions; 72 hours
Procedure: as §2
Following the general procedure of Study I, a further set of dilute aqueous stock solutions was prepared containing each component individually (Compositions 6M-O in Table 10). A stock solution containing a combinations of each component was prepared from the stock solutions of each component (Composition 6P in Table 10) to provide amounts representing the weight ratio of each component to one another present in a composition of Example 1-B as shown below in Note 1 to Table 10. For comparison, a dilute stock solution of hydroquinone (Composition 6Q) was included. A 20-fold (20×) dilution (distilled water) of each stock solution was selected for the in vitro test to minimize or avoid cytotoxicity of melanocytes in the cell growth medium.
as §3

B16 melanocytes [4] = test: Cell numbers by sulforhodamine B method, Study I; conditions: 20X dilution of stock solutions; 48 hours incubation
Procedure: as §1, §2

SMILES	effect on pigmentation / inhibition of melanin production/secretion (B16 melanocytes [1])	inhibitory effect on pigmentation (B16 melanocytes [2])	effect on cell numbers / cytotoxicity (B16 melanocytes [3])	effect on cell numbers / cytotoxicity (B16 melanocytes [4])	inhibition of melanin production/secretion (B16 melanocytes [2])	pigmentation expressed as % (water control 100%) (B16 melanocytes [1]; 20X dilution)
CC(N)[PH](=O)O (stereo not shown) [1-amino-ethylphosphinic acid]	no effect	no inhibitory effect	no inhibitory effect	no effect		
CCCCCCc1ccc(O)cc1O [4-hexylresorcinol]			cytotoxic	cytotoxic or cytostatic		
Oc1ccc(O)cc1 [hydroquinone]					≥ 50%	
O=c1cc(CO)occ1O [kojic acid]	dose-dependent pigmentation-inhibitory effect		without significantly impacting cell proliferation	without significantly impacting cell proliferation	about 73%	70-90%
NC(=O)c1cccnc1 [niacinamide]	no effect	no inhibitory effect	no inhibitory effect	no effect		
